Data: BindingDB's records for doi:10.1006/bbrc.1993.2130 (National Children's Medical Research Center, 1993)

target: T1, Alpha-1A adrenergic receptor (Homo sapiens, UniProt P35348)
T1 sequence (P35348 whole entry): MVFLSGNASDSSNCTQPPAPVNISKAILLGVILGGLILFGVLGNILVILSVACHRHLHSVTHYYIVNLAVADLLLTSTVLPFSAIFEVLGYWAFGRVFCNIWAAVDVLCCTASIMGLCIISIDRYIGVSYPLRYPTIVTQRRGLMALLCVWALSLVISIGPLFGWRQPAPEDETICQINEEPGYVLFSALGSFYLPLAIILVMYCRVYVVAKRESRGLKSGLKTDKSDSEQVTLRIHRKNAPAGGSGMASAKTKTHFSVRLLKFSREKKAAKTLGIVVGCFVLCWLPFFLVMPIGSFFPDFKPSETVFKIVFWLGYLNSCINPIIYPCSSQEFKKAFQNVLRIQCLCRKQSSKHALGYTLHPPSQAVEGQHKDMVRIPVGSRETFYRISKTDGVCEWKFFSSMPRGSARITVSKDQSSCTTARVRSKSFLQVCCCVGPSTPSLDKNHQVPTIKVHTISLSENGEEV

Compared with COc1ccc(OC)c(C(O)C(C)N)c1 (stereo not drawn), COc1ccccc1N1CCN(CCCNc2c(C)c(=O)n(C)c(=O)n2C)CC1 [Urapidil-5-methyl] is lower in Ki: over 10000 nM for the first, 4.2 nM for the second. The second binds more tightly here.

With COc1cccc(OC)c1OCCNCC1Oc2ccccc2OC1c1ccccc1 (stereo not drawn) [NSC_185453] the Ki was 0.23 nM.
